Laboratory results published in BigSolDB 2.1.

Cc1nc2n(c(=O)c1CCN1CCC(c3noc4cc(F)ccc34)CC1)CCCC2
solubility (mole fraction)
Conditions | in ethanol | in methanol | in water
283.15 K | 0.00105 | 0.00239 | 4.63e-08
283.16 K | 0.00104 | 0.00239 | 4.63e-08
288.15 K | 0.00138 | 0.00294 | 6.24e-08
288.16 K | 0.00138 | 0.00294 | 6.24e-08
293.15 K | 0.0017 | 0.00363 | 8.15e-08
293.16 K | 0.0017 | 0.00363 | 8.15e-08
298.15 K | 0.00216 | 0.00443 | 1.08e-07
298.16 K | – | 0.00443 | 1.08e-07
303.15 K | 0.00272 | 0.00546 | 1.38e-07
303.16 K | – | 0.00546 | 1.38e-07
308.15 K | 0.0035 | 0.00673 | 1.83e-07
308.16 K | – | 0.00674 | 1.83e-07
313.15 K | 0.00438 | 0.0083 | 2.38e-07
313.16 K | – | 0.0083 | 2.38e-07
318.15 K | – | 0.0101 | 2.91e-07
318.16 K | – | 0.0101 | 2.91e-07
323.15 K | – | 0.0121 | 3.81e-07
323.16 K | – | 0.0121 | 3.81e-07
328.15 K | – | 0.0148 | 4.79e-07
328.16 K | – | 0.0148 | 4.79e-07
